Results as given in patent US20120157492A1, “ANTIBIOTIC DRUG” (priority 2008, published 2012).
In brackets after ≈: the same amount, converted by molar mass. Where two headings read alike, the source gives them in different places.

Columns and labels:
[1] = tested on: S. pneumo-Levo (S): Clinical isolate of S. pnemoniae Levofloxacin sensitive strains; experiment: MIC by broth microdilution, levofloxacin-sensitive S. pneumoniae; format: cell-based; settings: Streptococcus pneumoniae
Method: (§1) Minimum inhibitory concentrations (MICs) were determined by the Broth microdilution method following the guidelines of the Clinical and Laboratory Standards Institute (CLSI). See, e.g., “Methods for Dilution Antimicrobial Susceptibility Tests for Bacterial That Grow Aerobically,” CLSI 2006, Approved standard-7th Ed. M7-A7; and “Performance standards for Antimicrobial Susceptibility Testing,” CLSI 2007, 17th Informational Supplement, M100-S17. Note that since there is no CLSI recommended broth microdilution (BMD) method for N. gonorrhoeae, the BMD method recommended for N. meningitis was used.
(§2) MICs were determined using the broth microdilution method.

[2] = tested on: S. pneumo-Levo (R): Clinical isolate of S. pnemoniae Levofloxacin resistant strains; experiment: MIC by broth microdilution, levofloxacin-resistant S. pneumoniae; format: cell-based; settings: Streptococcus pneumoniae
Method: as §1, §2

[3] = Pharmacokinetic study in rats (IV and PO); format: in vivo; settings: male, Sprague-Dawley, rat, plasma; for bioavailability: oral, read-out: oral bioavailability (% F); for half-life: read-out: terminal half-life (t1/2) (converted)
Method: Each of the malic acid salts of Compound 1 and Compound 1′ was dissolved in 0.7% lactic acid and 3% dextrose in water at a pH about 4.5 and 2.5% L-glutamic acid in water at a pH about 5.4 to provide solutions used in this pharmacokinetic study. Male Sprague-Dawley rats (BioLASCO Taiwan Co., Ltd., Taipei, Taiwan) weighing 300-400 g were surgically implanted with polyethylene (PE-50) cannula in the jugular vein for blood sampling while under pentobarbital anesthesia the day before the in-life phase. The rats were treated with a Compound 1 or Compound 1′ solution via intravenous injection (IV) at a dose of 2.5 mg/kg (N=3) or by oral gavage (PO) at a dose of 5 mg/kg (N=4). Dose levels were based on the free base form of the compounds. For PO study, the rats were fasted overnight with water ad libitum, and then dosed the next day. Serial blood samples were collected from animals pre-dose, at 5, 10 (IV only), 15, and 30 min, and at 1, 2, 4, 6, 8, 12, and 24 hours post-dose and heparinized plasma was recovered after centrifugation. Concentrations of the test compound in blood plasma were determined by liquid chromatography-mass spectrometry analysis (MDS SCIEX, API 3000, Applied Biosystems, CA, USA) with a lower limit of quantitation of 2 ng/mL. Standard pharmacokinetic parameters were assessed by non-compartmental analysis using WinNonlin (Version 4.0, Pharsight, CA, USA). The area under the concentration vs. time curve from the time of dosing to infinity (AUC(0-inf)) was calculated by the linear trapezoidal rule. Oral bioavailability (% F) was calculated from the dose-normalized ratio of plasma exposure following oral administration to the intravenous plasma exposure in the rats by the following equation: % F=(AUCpo/AUCiv)×(Div/Dpo)×100% where D is the dose and AUC is the area-under-the-plasma-concentration-time-curve from 0 to infinity.

[4] = tested on: MRSA-CIP (R): Clinical isolate of MRSA-ciprofloxacin resistant strain; experiment: MIC by broth microdilution, ciprofloxacin-resistant MRSA; format: cell-based, S. aureus; settings: Staphylococcus aureus
Method: as §1, §2

[5] = tested on: MRSA-CIP (S): Clinical isolate of MRSA-ciprofloxacin sensitive strain; experiment: MIC by broth microdilution, ciprofloxacin-sensitive MRSA; format: cell-based; settings: Staphylococcus aureus
Method: as §1, §2

[6] = tested on: 8 ATCC reference strains and 10 clinical strains (E. coli, P. aeruginosa, S. aureus, E. faecalis, E. faecium, S. pneumoniae, H. influenzae, N. gonorrhoeae); experiment: Inhibition of bacteria, MIC by broth microdilution (CLSI); format: cell-based
Method: Minimum inhibitory concentrations (MICs) were determined by the Broth microdilution method following the guidelines of the Clinical and Laboratory Standards Institute (CLSI). See, e.g., “Methods for Dilution Antimicrobial Susceptibility Tests for Bacterial That Grow Aerobically,” CLSI 2006, Approved standard-7th Ed. M7-A7; and “Performance standards for Antimicrobial Susceptibility Testing,” CLSI 2007, 17th Informational Supplement, M100-S17. Note that since there is no CLSI recommended broth microdilution (BMD) method for N. gonorrhoeae, the BMD method recommended for N. meningitis was used. Each of the three compounds was dissolved in water before sterile filtration to prepare stock solutions. The stock solutions were stored at −20° C. in aliquots. […] The 2× stock was dispensed at 50 μl per well into the 96-well microtitre plates. The plates were either used fresh or stored at −80° C. before use. To conduct the test, an aliquot of the frozen bacterial isolates was subcultured onto sheep blood agar for all species except that H. influenzae and N. gonorrhoeae were subculuted on chocolate plates. All plate media were purchased from BBL (Becton Dickinson Microbiology System, Cockeysville, Md.). The day before the antimicrobial susceptibility testing, all bacteria were sub-cultured again to obtain fresh starting cultures. […]

Structure (SMILES)	MIC50 [1] [µg/mL]	MIC50 [2] [µg/mL]	MIC90 [1] [µg/mL]	MIC90 [2] [µg/mL]	bioavailability ([3]; 5 mg/kg) [%]	MIC50 [4] [µg/mL]	MIC90 [4] [µg/mL]	MIC50 [5] [µg/mL]	MIC90 [5] [µg/mL]	MICs against the tested bacterial strains, compared with ciprofloxacin [6]	efficacy in inhibiting bacteria compared to malic acid salt of Compound 1′ [6]	AUC(0-inf) ([3]; IV injection, 2.5 mg/kg) [ng·h/mL]	half-life ([3]; IV injection, 2.5 mg/kg) [h]	AUC(0-inf) ([3]; PO, 5 mg/kg) [ng·h/mL]	Cmax ([3]; PO, 5 mg/kg, read-out: maximum of concentration (Cmax)) [ng/mL]	half-life ([3]; PO, 5 mg/kg) [h]	Tmax ([3]; PO, 5 mg/kg, read-out: time at the maximum of concentration (Tmax)) [h]
C[C@H]1COc2c(N3CCN(C)CC3)c(F)cc3c(=O)c(C(=O)O)cn1c23 [Levo, Levofloxacin]	16 (≈ 44.3 µM)	> 128	–	–	–	–	–	–	–	–	–	–	–	–	–	–	–
COc1c(N2C[C@@H](C)C[C@H](N)C2)ccc2c(=O)c(C(=O)O)cn(C3CC3)c12 [Compound 1′, reference compound]	0.06 (≈ 0.162 µM)	0.5 (≈ 1.35 µM)	0.06 (≈ 0.162 µM)	2 (≈ 5.38 µM)	13.2 ± 3.3	1 (≈ 2.69 µM)	2 (≈ 5.38 µM)	0.03 (≈ 0.0808 µM)	0.06 (≈ 0.162 µM)	–	–	–	–	–	–	–	–
COc1c(N2C[C@H](C)C[C@H](N)C2)ccc2c(=O)c(C(=O)O)cn(C3CC3)c12 [Compound 1, 7-((3S,5R)-3-amino-5-methylpiperidin-1-yl)-1-cyclopropyl-8-methoxy-4-oxo-1,4-dihydroquinoline-3-carboxylic acid]	0.03 (≈ 0.0808 µM)	0.25 (≈ 0.673 µM)	0.06 (≈ 0.162 µM)	1 (≈ 2.69 µM)	~45.9	1 (≈ 2.69 µM)	1 (≈ 2.69 µM)	0.03 (≈ 0.0808 µM)	0.06 (≈ 0.162 µM)	low MICs comparable with, or even lower than, that of ciprofloxacin	more efficacious in inhibiting in some S. aureus, H. influenzae, and P. aeruginosa stains	1530 ± 66	2.47 ± 0.801	1400 ± 464	622 ± 170	3.58 ± 1.7	0.25
